pIC50: −log10 of the molar value.
Test system: LG0567-F671-PDC complex spheroids viability
Experiment: Anticancer human tumor LG0567-F671-PDC patient-derived lung adenocarcinoma cell line growth inhibition [RAS]
Conditions: for pIC50: curve of first compound; for viability, T/C: stronger effect = lower value
In short: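 Tumour cells grown as complex spheroids with HUVEC endothelial cells and mesenchymal stem cells, treated with RAS pathway inhibitor combinations. Each agent spans half-log steps from near clinical Cmax, or 10 microM where Cmax is unknown.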

[1] = second compound 0.00316 µM, first compound 0.0316 µM
[2] = second compound 0.00316 µM, first compound 0.1 µM
[3] = second compound 0.00316 µM, first compound 0.316 µM
[4] = second compound 0.00316 µM, first compound 1 µM
[5] = second compound 0.00316 µM, first compound 3.16 µM
[6] = second compound 0.00316 µM, first compound 10 µM
[7] = second compound 0.01 µM, first compound 0.0316 µM
[8] = second compound 0.01 µM, first compound 0.1 µM
[9] = second compound 0.01 µM, first compound 0.316 µM
[10] = second compound 0.01 µM, first compound 1 µM
[11] = second compound 0.01 µM, first compound 3.16 µM
[12] = second compound 0.01 µM, first compound 10 µM
[13] = second compound 0.0316 µM, first compound 0.0316 µM
[14] = second compound 0.0316 µM, first compound 0.1 µM
[15] = second compound 0.0316 µM, first compound 0.316 µM
[16] = second compound 0.0316 µM, first compound 1 µM
[17] = second compound 0.0316 µM, first compound 3.16 µM
[18] = second compound 0.0316 µM, first compound 10 µM
[19] = second compound 0.1 µM, first compound 0.0316 µM
[20] = second compound 0.1 µM, first compound 0.1 µM
[21] = second compound 0.1 µM, first compound 0.316 µM
[22] = second compound 0.1 µM, first compound 1 µM
[23] = second compound 0.1 µM, first compound 3.16 µM
[24] = second compound 0.1 µM, first compound 10 µM
[25] = second compound 0.316 µM, first compound 0.0316 µM
[26] = second compound 0.316 µM, first compound 0.1 µM
[27] = second compound 0.316 µM, first compound 0.316 µM
[28] = second compound 0.316 µM, first compound 1 µM
[29] = second compound 0.316 µM, first compound 3.16 µM
[30] = second compound 0.316 µM, first compound 10 µM
[31] = second compound 1 µM, first compound 0.0316 µM
[32] = second compound 1 µM, first compound 0.1 µM
[33] = second compound 1 µM, first compound 0.316 µM
[34] = second compound 1 µM, first compound 1 µM
[35] = second compound 1 µM, first compound 3.16 µM
[36] = second compound 1 µM, first compound 10 µM
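Note: spheroids exposed to compound for seven days before readout.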
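Throughout, for pIC50: luminescence signal used as a proxy for viable cells.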

SMILES: C[C@@H](NC(=O)c1ncnc(N)c1Cl)c1ncc(C(=O)Nc2cc(C(F)(F)F)c(Cl)cn2)s1 + C=CC(=O)N1CCN(c2nc(OCC3CCCN3C)nc3c(F)c(-c4nc(N)cc(C)c4C(F)(F)F)c(Cl)cc23)C(C)C1
- pIC50 (second compound 0.00316 µM): > 7.50
- pIC50 (second compound 0.01 µM): > 7.50
- pIC50 (second compound 0.0316 µM): > 7.50
- pIC50 (second compound 0.1 µM): > 7.50
- pIC50 (second compound 0.316 µM): > 7.50
- pIC50 (second compound 1 µM): > 7.50
- viability, T/C [1]: 23%
- viability, T/C [2]: 21.9%
- viability, T/C [3]: 19.2%
- viability, T/C [4]: 25.3%
- viability, T/C [5]: 27.4%
- viability, T/C [6]: 22.3%
- viability, T/C [7]: 18.3%
- viability, T/C [8]: 16.7%
- viability, T/C [9]: 24.5%
- viability, T/C [10]: 19.2%
- viability, T/C [11]: 22.8%
- viability, T/C [12]: 20.4%
- viability, T/C [13]: 17.1%
- viability, T/C [14]: 17.3%
- viability, T/C [15]: 19.1%
- viability, T/C [16]: 19.3%
- viability, T/C [17]: 20.1%
- viability, T/C [18]: 18%
- viability, T/C [19]: 16.3%
- viability, T/C [20]: 14.9%
- viability, T/C [21]: 15.8%
- viability, T/C [22]: 18.3%
- viability, T/C [23]: 19%
- viability, T/C [24]: 18.5%
- viability, T/C [25]: 15.5%
- viability, T/C [26]: 16.1%
- viability, T/C [27]: 16.2%
- viability, T/C [28]: 18.5%
- viability, T/C [29]: 22.2%
- viability, T/C [30]: 23%
- viability, T/C [31]: 16.7%
- viability, T/C [32]: 17.4%
- viability, T/C [33]: 20.4%
- viability, T/C [34]: 17.2%
- viability, T/C [35]: 19.8%
- viability, T/C [36]: 20.8%

SMILES: CC1(O)CCCC1n1c(=O)c(C(F)F)cc2cnc(NC3CCN(S(C)(=O)=O)CC3)nc21 (stereo not drawn) + CCn1c(-c2cc(N3CCN(C)CC3)cnc2C(C)OC)c2c3cc(ccc31)-c1csc(n1)CC(NC(=O)C1CC1C)C(=O)N1CCCC(N1)C(=O)OCC(C)(C)C2
- pIC50 (second compound 0.000949 µM): > 7.50
- pIC50 (second compound 0.003 µM): > 7.50
- pIC50 (second compound 0.00949 µM): > 7.50
- pIC50 (second compound 0.03 µM): > 7.50
- pIC50 (second compound 0.0949 µM): > 7.50
- pIC50 (second compound 0.3 µM): > 7.50
- viability, T/C (second compound 0.000949 µM, first compound 0.0316 µM): 29.6%
- viability, T/C (second compound 0.000949 µM, first compound 0.1 µM): 27.7%
- viability, T/C (second compound 0.000949 µM, first compound 0.316 µM): 34.2%
- viability, T/C (second compound 0.000949 µM, first compound 1 µM): 35.2%
- viability, T/C (second compound 0.000949 µM, first compound 3.16 µM): 36.3%
- viability, T/C (second compound 0.000949 µM, first compound 10 µM): 24.7%
- viability, T/C (second compound 0.003 µM, first compound 0.0316 µM): 11.8%
- viability, T/C (second compound 0.003 µM, first compound 0.1 µM): 15.6%
- viability, T/C (second compound 0.003 µM, first compound 0.316 µM): 16.7%
- viability, T/C (second compound 0.003 µM, first compound 1 µM): 17.6%
- viability, T/C (second compound 0.003 µM, first compound 3.16 µM): 18.6%
- viability, T/C (second compound 0.003 µM, first compound 10 µM): 14.1%
- viability, T/C (second compound 0.00949 µM, first compound 0.0316 µM): 7.99%
- viability, T/C (second compound 0.00949 µM, first compound 0.1 µM): 8.49%
- viability, T/C (second compound 0.00949 µM, first compound 0.316 µM): 10.3%
- viability, T/C (second compound 0.00949 µM, first compound 1 µM): 10.8%
- viability, T/C (second compound 0.00949 µM, first compound 3.16 µM): 11.8%
- viability, T/C (second compound 0.00949 µM, first compound 10 µM): 8.83%
- viability, T/C (second compound 0.03 µM, first compound 0.0316 µM): 4.53%
- viability, T/C (second compound 0.03 µM, first compound 0.1 µM): 5.49%
- viability, T/C (second compound 0.03 µM, first compound 0.316 µM): 6.91%
- viability, T/C (second compound 0.03 µM, first compound 1 µM): 7.53%
- viability, T/C (second compound 0.03 µM, first compound 3.16 µM): 8.07%
- viability, T/C (second compound 0.03 µM, first compound 10 µM): 5.96%
- viability, T/C (second compound 0.0949 µM, first compound 0.0316 µM): 4.61%
- viability, T/C (second compound 0.0949 µM, first compound 0.1 µM): 4.51%
- viability, T/C (second compound 0.0949 µM, first compound 0.316 µM): 5.52%
- viability, T/C (second compound 0.0949 µM, first compound 1 µM): 6.15%
- viability, T/C (second compound 0.0949 µM, first compound 3.16 µM): 6.66%
- viability, T/C (second compound 0.0949 µM, first compound 10 µM): 5%
- viability, T/C (second compound 0.3 µM, first compound 0.0316 µM): 3.25%
- viability, T/C (second compound 0.3 µM, first compound 0.1 µM): 3.76%
- viability, T/C (second compound 0.3 µM, first compound 0.316 µM): 4.31%
- viability, T/C (second compound 0.3 µM, first compound 1 µM): 5.52%
- viability, T/C (second compound 0.3 µM, first compound 3.16 µM): 5.43%
- viability, T/C (second compound 0.3 µM, first compound 10 µM): 4.68%

SMILES: CC(=O)OC12COC1CC(O)C1(C)C(=O)C(O)C3=C(C)C(OC(=O)C(O)C(NC(=O)OC(C)(C)C)c4ccccc4)CC(O)(C(OC(=O)c4ccccc4)C21)C3(C)C (stereo not drawn) + C=CC(=O)N1CCN(c2nc(OCC3CCCN3C)nc3c(F)c(-c4nc(N)cc(C)c4C(F)(F)F)c(Cl)cc23)C(C)C1
- pIC50 (second compound 0.00316 µM): > 7.50
- pIC50 (second compound 0.01 µM): > 7.50
- pIC50 (second compound 0.0316 µM): > 7.50
- pIC50 (second compound 0.1 µM): > 7.50
- pIC50 (second compound 0.316 µM): > 7.50
- pIC50 (second compound 1 µM): > 7.50
- viability, T/C [1]: 14%
- viability, T/C [2]: 12.6%
- viability, T/C [3]: 13.9%
- viability, T/C [4]: 14.3%
- viability, T/C [5]: 15.8%
- viability, T/C [6]: 12%
- viability, T/C [7]: 11.3%
- viability, T/C [8]: 11.3%
- viability, T/C [9]: 9.97%
- viability, T/C [10]: 11.6%
- viability, T/C [11]: 12.5%
- viability, T/C [12]: 9.61%
- viability, T/C [13]: 13.7%
- viability, T/C [14]: 11.6%
- viability, T/C [15]: 10.8%
- viability, T/C [16]: 11.4%
- viability, T/C [17]: 14.5%
- viability, T/C [18]: 9.14%
- viability, T/C [19]: 11.1%
- viability, T/C [20]: 10.8%
- viability, T/C [21]: 10.9%
- viability, T/C [22]: 11.5%
- viability, T/C [23]: 13.6%
- viability, T/C [24]: 8.85%
- viability, T/C [25]: 11.9%
- viability, T/C [26]: 10.7%
- viability, T/C [27]: 11.5%
- viability, T/C [28]: 12.2%
- viability, T/C [29]: 14.7%
- viability, T/C [30]: 9.3%
- viability, T/C [31]: 12.6%
- viability, T/C [32]: 10.2%
- viability, T/C [33]: 12.4%
- viability, T/C [34]: 14.5%
- viability, T/C [35]: 14.7%
- viability, T/C [36]: 9.86%

SMILES: C=CC(=O)Nc1cc(Nc2nccc(-c3cn(C)c4ccccc34)n2)c(OC)cc1N(C)CCN(C)C + C=CC(=O)N1CCN(c2nc(OCC3CCCN3C)nc3c(F)c(-c4nc(N)cc(C)c4C(F)(F)F)c(Cl)cc23)C(C)C1
- pIC50 (second compound 0.00316 µM): > 8.50
- pIC50 (second compound 0.01 µM): > 8.50
- pIC50 (second compound 0.0316 µM): > 8.50
- pIC50 (second compound 0.1 µM): > 8.50
- pIC50 (second compound 0.316 µM): > 8.50
- pIC50 (second compound 1 µM): > 8.50
- viability, T/C (second compound 0.00316 µM, first compound 0.00316 µM): 18.7%
- viability, T/C (second compound 0.00316 µM, first compound 0.01 µM): 15.6%
- viability, T/C [1]: 12.6%
- viability, T/C [2]: 12.6%
- viability, T/C [3]: 4.81%
- viability, T/C [4]: 3.52%
- viability, T/C (second compound 0.01 µM, first compound 0.00316 µM): 15.1%
- viability, T/C (second compound 0.01 µM, first compound 0.01 µM): 12.1%
- viability, T/C [7]: 10%
- viability, T/C [8]: 8.19%
- viability, T/C [9]: 4.72%
- viability, T/C [10]: 2.49%
- viability, T/C (second compound 0.0316 µM, first compound 0.00316 µM): 13.3%
- viability, T/C (second compound 0.0316 µM, first compound 0.01 µM): 12.7%
- viability, T/C [13]: 9.76%
- viability, T/C [14]: 7.26%
- viability, T/C [15]: 6.15%
- viability, T/C [16]: 2.62%
- viability, T/C (second compound 0.1 µM, first compound 0.00316 µM): 15%
- viability, T/C (second compound 0.1 µM, first compound 0.01 µM): 11.8%
- viability, T/C [19]: 9.84%
- viability, T/C [20]: 7.87%
- viability, T/C [21]: 4.28%
- viability, T/C [22]: 2.86%
- viability, T/C (second compound 0.316 µM, first compound 0.00316 µM): 14%
- viability, T/C (second compound 0.316 µM, first compound 0.01 µM): 11.4%
- viability, T/C [25]: 9.92%
- viability, T/C [26]: 6.96%
- viability, T/C [27]: 4.73%
- viability, T/C [28]: 3.38%
- viability, T/C (second compound 1 µM, first compound 0.00316 µM): 13.3%
- viability, T/C (second compound 1 µM, first compound 0.01 µM): 12.2%
- viability, T/C [31]: 11.4%
- viability, T/C [32]: 10.6%
- viability, T/C [33]: 4.57%
- viability, T/C [34]: 3.23%

— PubChem BioAssay AID2060889 (Molecular Pharmacology Branch, DTP, NCI, 2025)
